Experimental data as given in ChEMBL document CHEMBL4825735, “Estimation of the lipophilicity of purine-2,6-dione-based TRPA1 antagonists and PDE4/7 inhibitors with analgesic activity” (Bioorg Med Chem Lett, 2021).

Assays:
[1] = Relative lipophilicity of the compound in methanol assessed as retardation factor by reversed-phase TLC analysis; format: physicochemical
[2] = Lipophilicity, logP of compound by shake flask method; format: physicochemical; settings: octanol/water

For COc1nc2c(c(=O)n(C)c(=O)n2C)n1CC(=O)Nc1ccc(C(C)(C)C)cc1, the Rm [1] was 3.92.
With COc1nc2c(c(=O)n(C)c(=O)n2C)n1CCCC(=O)Nc1ccc(C(C)(C)C)cc1 the Rm [1] was 3.82.
Compound CCCOc1nc2c(c(=O)n(C)c(=O)n2C)n1CCCC(=O)Nc1ccc(C(C)CC)cc1 (configuration not stated) has a Rm [1] of 4.86.
Work on CCCOc1nc2c(c(=O)n(C)c(=O)n2C)n1CCCC(=O)Nc1ccc(C(C)(C)C)cc1 yielded a Rm [1] of 4.81.
COc1nc2c(c(=O)n(C)c(=O)n2C)n1CC(=O)Nc1ccc(C(C)C)cc1 gave a Rm [1] of 3.28.
Work on CCOc1nc2c(c(=O)n(C)c(=O)n2C)n1CCCC(=O)Nc1ccc(C(C)C)cc1 yielded a Rm [1] of 4.4.
Compound CCOc1nc2c(c(=O)n(C)c(=O)n2C)n1CC(=O)Nc1ccc(C(C)(C)C)cc1 has a Rm [1] of 3.99.
With CCOc1nc2c(c(=O)n(C)c(=O)n2C)n1CCCC(=O)Nc1ccc(C(C)(C)C)cc1 the Rm [1] was 3.84.
Compound CCCOc1nc2c(c(=O)n(C)c(=O)n2C)n1CCCC(=O)Nc1ccc(C(C)C)cc1 has a Rm [1] of 4.4.
Work on CCCCOc1nc2c(c(=O)n(C)c(=O)n2C)n1CCCC(=O)Nc1ccc(C(C)CC)cc1 (configuration not stated) yielded a Rm [1] of 4.7.
With CCOc1nc2c(c(=O)n(C)c(=O)n2C)n1CC(=O)Nc1ccc(C(C)C)cc1 the Rm [1] was 3.86.
In the case of COc1nc2c(c(=O)n(C)c(=O)n2C)n1CCCC(=O)Nc1ccc(C(C)C)cc1, the Rm [1] was 3.8.
Work on CCCCOc1nc2c(c(=O)n(C)c(=O)n2C)n1CCCC(=O)Nc1cc(C(C)CC)ccc1O (configuration not stated) yielded a Rm [1] of 4.87.
Compound CCCOc1nc2c(c(=O)n(C)c(=O)n2C)n1CCCC(=O)Nc1cc(C(C)CC)ccc1O (configuration not stated) has a Rm [1] of 4.52.
In the case of CC(=O)Nc1ccc(O)cc1 [ACETAMINOPHEN], the Rm [1] was 0.31.
CCC1(CC)C(=O)NC(=O)NC1=O [BARBITAL] gave a Rm [1] of 0.8.
CCOC(=O)c1ccc(N)cc1 [BENZOCAINE] showed a Rm [1] of 1.92.
O=C(CCCN1CCC(O)(c2ccc(Cl)cc2)CC1)c1ccc(F)cc1 [HALOPERIDOL] showed a Rm [1] of 3.61.
Work on CCN(CC)CC(=O)Nc1c(C)cccc1C [LIDOCAINE] yielded a Rm [1] of 1.31.
With COc1ccc(Cc2nccc3cc(OC)c(OC)cc23)cc1OC [PAPAVERINE] the logP [2] was 3 and the Rm [1] was 2.79.
CCC1(c2ccccc2)C(=O)NC(=O)NC1=O [PHENOBARBITAL] gave a Rm [1] of 1.9.
O=C1NC(=O)C(c2ccccc2)(c2ccccc2)N1 [PHENYTOIN] gave a Rm [1] of 2.43.
In the case of C[C@]12C=CC(=O)C=C1CC[C@@H]1[C@@H]2[C@@H](O)C[C@@]2(C)[C@H]1CC[C@]2(O)C(=O)CO [PREDNISOLONE], the Rm [1] was 2.49.
Compound Cn1cnc2c1c(=O)[nH]c(=O)n2C [THEOBROMINE] has a Rm [1] of 0.26.
With Cn1c(=O)c2[nH]cnc2n(C)c1=O.O [THEOPHYLLINE] the Rm [1] was 0.61.
O=c1n(CCCN2CCN(c3cccc(Cl)c3)CC2)nc2ccccn12 [TRAZODONE] gave a Rm [1] of 2.65.
